{"source": "PubChem BioAssay AID202", "about": "(DTP/NCI, 2004)", "tested_on": "HT29 xenograft, nude mice, s.c., tumor weight T/C%", "experiment": "NCI In Vivo Anticancer Drug Screen. Data for tumor model HT29;CX-1 Human Adenocarcinoma (MER+) (subcutaneous) in NU/NU Swiss (nude) mice", "settings": "endpoint: optimum tumor weight change, higher = larger tumour", "procedure": "The antitumor activity of compounds was measured in mice bearing transplantable tumors. Survival or tumor size were measured and the results are expressed as the measurement made in the treated group (T) divided by the measurement made in the vehicle treated control group (C). The tumor model used in this assay is HT29;CX-1 Human Adenocarcinoma (MER+) (subcutaneous) in NU/NU Swiss (nude) mice", "key": {"[1]": {"settings": "dose: 50.0 mg/kg/injection, schedule: Q04DX003 (ip), vehicle: saline"}}, "note": "Where “and” joins values, the source holds several entries; their conditions need not be identical. Identical values can stand only once.", "data": [{"smiles": "Cc1c(N)nc([C@H](CC(N)=O)NC[C@H](N)C(N)=O)nc1C(=O)N[C@H](C(=O)N[C@H](C)[C@@H](O)[C@H](C)C(=O)N[C@H](C(=O)NCCc1nc(-c2nc(C(=O)NCCC[S+](C)C)cs2)cs1)[C@@H](C)O)C(OC1OC(CO)C(O)C(O)C1OC1OC(CO)C(O)C(OC(N)=O)C1O)c1cnc[nH]1", "note": "(some centres undefined)", "values": [{"measurement": "T/C", "setting": "dose: 3.75 mg/kg/injection, schedule: Q04DX003 (ip), vehicle: saline", "result": "71 % of control"}, {"measurement": "T/C", "setting": "dose: 4.0 mg/kg/injection, schedule: Q04DX003 (ip), vehicle: saline", "result": "64 % of control"}, {"measurement": "T/C", "setting": "dose: 7.5 mg/kg/injection, schedule: Q04DX003 (ip), vehicle: saline", "result": "50 % of control and 70 % of control"}, {"measurement": "T/C", "setting": "dose: 7.5 mg/kg/injection, schedule: Q04DX004 (ip), vehicle: saline", "result": "37 % of control"}, {"measurement": "T/C", "setting": "dose: 8.0 mg/kg/injection, schedule: Q04DX003 (ip), vehicle: saline", "result": "49 % of control"}, {"measurement": "T/C", "setting": "dose: 15.0 mg/kg/injection, schedule: Q04DX004 (ip), vehicle: saline", "result": "26 % of control"}, {"measurement": "T/C", "setting": "dose: 16.0 mg/kg/injection, schedule: Q04DX003 (ip), vehicle: saline", "result": "28 % of control and 33 % of control"}, {"measurement": "T/C", "setting": "dose: 32.0 mg/kg/injection, schedule: Q04DX003 (ip), vehicle: saline", "result": "11 % of control"}]}, {"smiles": "COc1cc2c[n+](C)c3c4cc5c(cc4ccc3c2cc1OC)OCO5", "values": [{"measurement": "T/C", "setting": "dose: 20.0 mg/kg/injection, schedule: Q04DX003 (ip), vehicle: saline with Tween-80", "result": "111 % of control"}, {"measurement": "T/C", "setting": "dose: 40.0 mg/kg/injection, schedule: Q04DX003 (ip), vehicle: saline with Tween-80", "result": "124 % of control"}, {"measurement": "T/C", "setting": "dose: 80.0 mg/kg/injection, schedule: Q04DX003 (ip), vehicle: saline with Tween-80", "result": "50 % of control"}]}, {"smiles": "COC(OC(CO)C(O)S(=O)(=O)O)C(O)S(=O)(=O)O", "note": "(centres undefined)", "values": [{"measurement": "T/C", "setting": "dose: 200.0 mg/kg/injection, schedule: Q04DX003 (ip), vehicle: suspension in saline", "result": "54 % of control"}, {"measurement": "T/C", "setting": "dose: 400.0 mg/kg/injection, schedule: Q04DX003 (ip), vehicle: suspension in saline", "result": "80 % of control"}]}, {"smiles": "NC(Cc1ccc(N(CCCl)CCCl)cc1)C(=O)O", "note": "(centres undefined)", "values": [{"measurement": "T/C", "setting": "dose: 5.0 mg/kg/injection, schedule: Q04DX003 (ip), vehicle: Klucel (hydroxypropylcellulose) (HPC)", "result": "73 % of control"}]}, {"smiles": "CN1CCN(CCCN2c3ccccc3Sc3ccc(C(F)(F)F)cc32)CC1", "values": [{"measurement": "T/C", "setting": "[1]", "result": "79 % of control"}]}, {"smiles": "C=CC(=O)NCNC(=O)C=C", "values": [{"measurement": "T/C", "setting": "[1]", "result": "78 % of control"}, {"measurement": "T/C", "setting": "dose: 100.0 mg/kg/injection, schedule: Q04DX003 (ip), vehicle: saline", "result": "65 % of control"}, {"measurement": "T/C", "setting": "dose: 200.0 mg/kg/injection, schedule: Q04DX003 (ip), vehicle: saline", "result": "60 % of control"}]}, {"smiles": "COc1cccc2c1C(=O)c1c(O)c3c(c(O)c1C2=O)C[C@@](O)(C(=O)CO)C[C@@H]3OC1CC(N)C(O)C(C)O1", "note": "(some centres undefined)", "values": [{"measurement": "T/C", "setting": "dose: 2.0 mg/kg/injection, schedule: Q04DX003 (ip), vehicle: water", "result": "83 % of control"}]}, {"smiles": "CC(C)CCCCCCCCCCCCC(=O)NCC(=O)NC1C(O)C(O)C(Nc2ncnc3nc[nH]c23)OC1C(O)CO", "note": "(centres undefined)", "values": [{"measurement": "T/C", "setting": "dose: 3.0 mg/kg/injection, schedule: Q04DX003 (ip), vehicle: suspension in saline", "result": "108 % of control and 110 % of control"}, {"measurement": "T/C", "setting": "dose: 6.0 mg/kg/injection, schedule: Q04DX003 (ip), vehicle: suspension in saline", "result": "67 % of control and 79 % of control"}, {"measurement": "T/C", "setting": "dose: 12.0 mg/kg/injection, schedule: Q04DX003 (ip), vehicle: suspension in saline", "result": "16 % of control and 40 % of control"}]}, {"smiles": "CN(C)N=Nc1ccccc1", "values": [{"measurement": "T/C", "setting": "dose: 25.0 mg/kg/injection, schedule: Q04DX003 (ip), vehicle: Klucel (hydroxypropylcellulose) (HPC)", "result": "64 % of control"}, {"measurement": "T/C", "setting": "dose: 50.0 mg/kg/injection, schedule: Q04DX003 (ip), vehicle: Klucel (hydroxypropylcellulose) (HPC)", "result": "83 % of control"}]}]}
